# Data reported in ChEMBL document CHEMBL1201862, “PubChem BioAssay data set” (2004).
#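 Results reflect a 48-hour exposure of cells in 96-well plates to compound at five concentrations. GI50 is the concentration that inhibits growth by half.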 Activity calls are given as the source filed them. Cut-off read from the data, not from the text of the source: active = GI50 up to about 1.1 µM and inactive = higher.
# Tests used:
# Assay in all cases: growth of human tumour cells (NCI), 48 h
# [1] = test system: Malme-3M
# [2] = test system: NCI-H460
# [3] = test system: NCI-H226
# [4] = test system: SNB-19
# [5] = test system: SK-OV-3
# [6] = test system: OVCAR-5
# [7] = test system: COLO 205
# [8] = test system: NCI-H23
# [9] = test system: HL-60
# [10] = test system: KM12
# [11] = test system: UO-31
# [12] = test system: K562
# [13] = test system: HT-29
# [14] = test system: SNB-75
# [15] = test system: SN12C
# [16] = test system: HOP-62
# [17] = test system: UACC-62
# [18] = test system: SK-MEL-2
# [19] = test system: OVCAR-8
# [20] = test system: CCRF-CEM
SMILES,GI50 [1],GI50 [2],GI50 [3],GI50 [4],GI50 [5],GI50 [6],GI50 [7],GI50 [8],GI50 [9],GI50 [10],GI50 [11],GI50 [12],GI50 [13],GI50 [14],GI50 [15],GI50 [16],GI50 [17],GI50 [18],GI50 [19],GI50 [20]
COC(=O)c1c(OC(C)=O)ccc2c1c1c(n2Cc2ccccc2)C(=O)c2ccccc2C1=O,30 µM (inactive),30.1 µM (inactive),23 µM (inactive),35.3 µM (inactive),23.6 µM (inactive),20.1 µM (inactive),16.9 µM (inactive),19.5 µM (inactive),25.8 µM (inactive),20.5 µM (inactive),37.2 µM (inactive),25.7 µM (inactive),16.9 µM (inactive),22.2 µM (inactive),19.1 µM (inactive),24.1 µM (inactive),22.5 µM (inactive),18.7 µM (inactive),27.7 µM (inactive),36.3 µM (inactive)
Brc1ccc(/C(N=N/C(=N\Sc2ccccc2)c2ccc(Br)cc2)=N/Sc2ccccc2)cc1,> 100 µM (inactive),> 100 µM (inactive),> 100 µM (inactive),> 100 µM (inactive),> 100 µM (inactive),> 100 µM (inactive),> 100 µM (inactive),> 100 µM (inactive),> 100 µM (inactive),> 62.1 µM (inactive),> 100 µM (inactive),> 100 µM (inactive),> 100 µM (inactive),> 71.8 µM (inactive),> 100 µM (inactive),> 100 µM (inactive),> 100 µM (inactive),> 100 µM (inactive),> 100 µM (inactive),> 100 µM (inactive)
Nc1nc(Cl)cc(NCCCCCCCCCCCCNc2cc(Cl)nc(N)n2)n1,24.4 µM (inactive),2.5 µM (inactive),15 µM (inactive),,32.4 µM (inactive),,19.9 µM (inactive),0.0136 µM (active),1.14 µM (inactive),83 µM (inactive),31.7 µM (inactive),0.0655 µM (active),10.5 µM (inactive),8.53 µM (inactive),32.7 µM (inactive),12.2 µM (inactive),6.84 µM (inactive),34.4 µM (inactive),10.1 µM (inactive),1.69 µM (inactive)
CCCC(=O)Nc1cc(/C=C/C(=O)N2CC(CCl)c3c2cc(OCc2ccccc2)c2[nH]cc(C)c32)n(C)c1 (configuration not stated),0.0916 µM (active),0.0147 µM (active),0.107 µM (active),0.337 µM (active),0.199 µM (active),0.151 µM (active),0.188 µM (active),0.0139 µM (active),0.0259 µM (active),0.102 µM (active),0.0493 µM (active),0.0373 µM (active),0.0687 µM (active),0.0675 µM (active),0.186 µM (active),0.0491 µM (active),0.027 µM (active),0.074 µM (active),0.0221 µM (active),0.0101 µM (active)
CN(C)CCCCN1CCc2c(n(C)c3ccccc23)C1=O,19.2 µM (inactive),,> 59.7 µM (inactive),> 74 µM (inactive),> 63.7 µM (inactive),,18.1 µM (inactive),54.2 µM (inactive),51.4 µM (inactive),44.4 µM (inactive),30.9 µM (inactive),26.2 µM (inactive),18.7 µM (inactive),22.3 µM (inactive),42 µM (inactive),38.7 µM (inactive),17.3 µM (inactive),20 µM (inactive),> 80.4 µM (inactive),63.2 µM (inactive)
COC(=O)c1sc(=NC(=S)N2CCCCC2)sc1C(=O)OC,> 100 µM (inactive),6.38 µM (inactive),> 100 µM (inactive),> 100 µM (inactive),> 100 µM (inactive),,63 µM (inactive),,> 100 µM (inactive),91.4 µM (inactive),98.4 µM (inactive),71.6 µM (inactive),,> 100 µM (inactive),> 100 µM (inactive),> 100 µM (inactive),> 100 µM (inactive),> 100 µM (inactive),> 100 µM (inactive),32.7 µM (inactive)
COC1=CC(=O)c2ccccc2C1(C)C1=NC(C)(C)CO1 (configuration not stated),> 100 µM (inactive),> 100 µM (inactive),> 100 µM (inactive),> 100 µM (inactive),> 100 µM (inactive),,> 100 µM (inactive),> 100 µM (inactive),> 100 µM (inactive),> 100 µM (inactive),> 100 µM (inactive),> 100 µM (inactive),> 100 µM (inactive),> 100 µM (inactive),> 100 µM (inactive),> 100 µM (inactive),> 100 µM (inactive),> 100 µM (inactive),> 100 µM (inactive),> 100 µM (inactive)
CC1C(O)C2(Oc3cc4c(c5c3[C@@H](CC5O)[C@H]2C)CCC2Cc3nc5c(nc3C[C@@]42C)CC2CCC3C4=C[C@H]6O[C@@]7(O[C@@](C)(CO)C[C@@H]7O)C(C)[C@@]6(O)[C@]4(C)[C@@H](O)CC3[C@]2(C)C5)OC1(C)C (some centres not stated),0.0927 µM (active),0.0735 µM (active),0.135 µM (active),,0.139 µM (active),0.435 µM (active),0.152 µM (active),0.114 µM (active),0.0644 µM (active),0.241 µM (active),1.08 µM (active),0.098 µM (active),0.0977 µM (active),0.00543 µM (active),0.377 µM (active),0.0715 µM (active),0.0877 µM (active),0.114 µM (active),0.428 µM (active),0.0582 µM (active)
c1ccc2c(c1)cc1n2CC2CN=NC12 (configuration not stated),> 100 µM (inactive),> 100 µM (inactive),> 100 µM (inactive),> 100 µM (inactive),> 100 µM (inactive),> 100 µM (inactive),,,> 100 µM (inactive),> 100 µM (inactive),> 100 µM (inactive),> 100 µM (inactive),> 100 µM (inactive),47.8 µM (inactive),> 100 µM (inactive),> 100 µM (inactive),> 100 µM (inactive),> 100 µM (inactive),> 100 µM (inactive),
O=c1cc(N2CCCC2)[nH]c(=O)n1-c1cccc(C(F)(F)F)c1,> 100 µM (inactive),> 100 µM (inactive),> 100 µM (inactive),> 100 µM (inactive),> 100 µM (inactive),> 100 µM (inactive),> 100 µM (inactive),> 100 µM (inactive),> 100 µM (inactive),> 100 µM (inactive),,> 100 µM (inactive),> 100 µM (inactive),> 100 µM (inactive),> 100 µM (inactive),> 100 µM (inactive),> 100 µM (inactive),> 100 µM (inactive),> 100 µM (inactive),> 100 µM (inactive)
C/C(=N\NC(=S)N1CCN(c2ccccn2)CC1)c1cccc(C)n1,2.59 µM (inactive),1.03 µM (active),2.06 µM (inactive),7.26 µM (inactive),8.65 µM (inactive),4.03 µM (inactive),< 0.01 µM (active),5.58 µM (inactive),0.0115 µM (active),3.1 µM (inactive),9.14 µM (inactive),0.585 µM (active),< 0.01 µM (active),3.84 µM (inactive),7.98 µM (inactive),6.31 µM (inactive),2.23 µM (inactive),2.15 µM (inactive),,< 0.01 µM (active)
CC(=O)OCC1OC(n2cc(F)c(=O)[nH]c2=O)C(NC(=O)OCc2ccccc2)C(OC(C)=O)C1OC(C)=O (configuration not stated),> 100 µM (inactive),> 100 µM (inactive),> 100 µM (inactive),> 100 µM (inactive),> 100 µM (inactive),> 100 µM (inactive),,> 100 µM (inactive),> 100 µM (inactive),> 100 µM (inactive),> 100 µM (inactive),> 100 µM (inactive),> 100 µM (inactive),> 100 µM (inactive),> 100 µM (inactive),> 100 µM (inactive),> 100 µM (inactive),> 100 µM (inactive),> 100 µM (inactive),> 100 µM (inactive)
CCc1cc2c(cc1O)CC[C@@H]1[C@@H]2CC[C@]2(C)[C@@H](O)CC[C@@H]12,2.97 µM (inactive),5.42 µM (inactive),12.2 µM (inactive),6.34 µM (inactive),11.7 µM (inactive),20.3 µM (inactive),17.5 µM (inactive),7.14 µM (inactive),3.02 µM (inactive),6.19 µM (inactive),9.08 µM (inactive),3.88 µM (inactive),15 µM (inactive),1.9 µM (inactive),,6.14 µM (inactive),> 10 µM (inactive),9.82 µM (inactive),7.24 µM (inactive),5.6 µM (inactive)
CS(=O)(=O)OCC1=C(COS(C)(=O)=O)C(=O)c2c(O)ccc(O)c2C1=O,> 100 µM (inactive),,> 100 µM (inactive),,> 100 µM (inactive),> 100 µM (inactive),> 100 µM (inactive),> 100 µM (inactive),> 100 µM (inactive),> 100 µM (inactive),> 100 µM (inactive),> 100 µM (inactive),> 100 µM (inactive),> 100 µM (inactive),> 100 µM (inactive),> 100 µM (inactive),> 100 µM (inactive),> 100 µM (inactive),> 100 µM (inactive),> 100 µM (inactive)
